Test results taken from patent US11510933B2, “Use of Pulsatilla chinensis extract in the preparation of drugs for treatment of viral and/or bacterial diseases” (priority 2018, dated 2022).
Marks after values point to notes of the source that are not given here.

Columns and labels:
canine acute nephritis = assay: treatment of canine acute nephritis; type: in vivo, dogs; conditions: 14 days, n = 10; for Positive rate of white blood cell (+++, %): urine
Protocol: (§1) Anemoside B4 injection prepared in example 3, with a concentration of 50 mg/mL.
Dogs suffering from acute nephritis are cases received by various pet hospitals in Chengdu city.
The sick dogs are characterized by loss of appetite, indigestion, depression, and a slight increase in body temperature.
(§2) Anemoside B4 injection was intravenously injected, 2 mL/time in low-dose group, 4 mL/time in medium-dose group, 8 mL/time in high-dose group, once a day; anemoside B4 injection was intramuscularly injected, 1 mL/time in low-dose group, 2 mL/time in the middle-dose group, 4 mL/time in the high-dose group, twice a day; the treatment was kept for 14 days.

canine parvovirus = assay: treatment of canine parvovirus; type: in vivo, dogs; parameters: White blood cell count: unit not given here; conditions: 14 days, n = 10
Protocol: as §1
Dogs suffering from canine parvovirus are cases received by various pet hospitals in Chengdu.
In the early, dogs have high temperature and vomit violently. The vomit changes from white to yellow, and finally to green, with a small amount of blood streak; eyes' conjunctival congestion and tears; liking drinking water and vomiting after drinking; fecal jets are like tomato sauce, smelly and unpleasant; preferring to lie down; the number of white blood cells dropped sharply, together with severe dehydration, heart failure, and shock to death.
as §2

canine renal failure = assay: treatment of canine renal failure; type: in vivo, dogs; conditions: 14 days, n = 10
[1] = test system: cow clinical endometritis; assay: treatment of cow clinical endometritis; type: in vivo, cows; conditions: n = 10
Protocol: Anemoside B4 injection prepared in example 3, with a concentration of 50 mg/mL; Anemoside B4 intrauterine injection prepared in example 5, with a concentration of 50 mg/mL.
Positive drug: doxycycline hydrochloride intrauterine injection (24 g/injection, produced by Zhengzhou Bairui Animal Pharmaceutical Co., Ltd., batch No.: 170901).
130 cows with disease were randomly divided into 13 groups, 10 cows for each group.
The cows selected in this experiment were all those with clinical endometritis. During the experiment, the temperature, spirit and diet of the cows were normal.
Administration by […] injection: Administrating anemoside B4 by intramulscular injection, twice per day, one in the morning and another in the evening, for successive four days;
Administration by intrauterine infusion: administrating anemoside B4 and positive drug doxycycline hydrochloride by intrauterine infusion, once every other day, for 4 times.
A blank control group was set up in different administration routes, and the same dose of normal saline was administered.

feline parvovirus = assay: treatment of feline parvovirus; type: in vivo, cats; parameters: White blood cell count: unit not given here; conditions: 14 days, n = 10
Protocol: as §1
Cats suffering from feline parvovirus are cases received by various pet hospitals in Chengdu.
Cats occasionally having fever, severe vomiting, and diarrhea; the stool changing from gray to yellow and finally to milky white, accompanied by jelly-like mucus; stools liking tomato sauce, smelly and unpleasant; having a lying prone; the number of white blood cells dropping sharply, cold limbs, highly depressed spirit, then shock to death.
as §2

[2] = high-dose, intramuscular injection 4 mL/time (50 mg/mL), twice a day
[3] = high-dose, intravenous injection 8 mL/time (50 mg/mL), once a day
[4] = low-dose, intramuscular injection 1 mL/time (50 mg/mL), twice a day
[5] = low-dose, intravenous injection 2 mL/time (50 mg/mL), once a day
[6] = medium-dose, intramuscular injection 2 mL/time (50 mg/mL), twice a day
[7] = medium-dose, intravenous injection 4 mL/time (50 mg/mL), once a day
[8] = high-dose, intramuscular injection 30 mL/time (50 mg/mL), twice per day, 4 days
[9] = high-dose, intrauterine infusion 30 mL/time (50 mg/mL), once every other day, 4 times
[10] = high-dose, intravenous injection 60 mL/time (50 mg/mL)
[11] = low-dose, intramuscular injection 10 mL/time (50 mg/mL), twice per day, 4 days
[12] = low-dose, intrauterine infusion 10 mL/time (50 mg/mL), once every other day, 4 times
[13] = low-dose, intravenous injection 20 mL/time (50 mg/mL)
[14] = medium-dose, intramuscular injection 20 mL/time (50 mg/mL), twice per day, 4 days
[15] = medium-dose, intrauterine infusion 20 mL/time (50 mg/mL), once every other day, 4 times
[16] = medium-dose, intravenous injection 40 mL/time (50 mg/mL)

C=C(C)[C@@H]1CC[C@]2(C(=O)O[C@@H]3O[C@H](CO[C@@H]4O[C@H](CO)[C@@H](O[C@@H]5O[C@@H](C)[C@H](O)[C@@H](O)[C@H]5O)[C@H](O)[C@H]4O)[C@@H](O)[C@H](O)[C@H]3O)CC[C@]3(C)[C@H](CC[C@@H]4[C@@]5(C)CC[C@H](O[C@@H]6OC[C@H](O)[C@H](O)[C@H]6O[C@@H]6O[C@@H](C)[C@H](O)[C@@H](O)[C@H]6O)[C@@](C)(CO)[C@@H]5CC[C@]43C)[C@H]12 [anemoside B4]
Body temperature (canine acute nephritis; [2]): 39.0 ± 0.2 °C | Mortality rate (canine acute nephritis; [2]): 50% | Positive rate of urine protein (+++, %) (canine acute nephritis; [2]): 60% | Urine specific gravity (canine acute nephritis; [2]): 1.064 ± 0.02 | Body temperature (canine acute nephritis; [3]): 38.5 ± 0.4 °C | Mortality rate (canine acute nephritis; [3]): 30% | Positive rate of urine protein (+++, %) (canine acute nephritis; [3]): 30% | Urine specific gravity (canine acute nephritis; [3]): 1.003 ± 0.01 | Body temperature (canine acute nephritis; [4]): 39.5 ± 0.3 °C | Mortality rate (canine acute nephritis; [4]): 60% | Positive rate of urine protein (+++, %) (canine acute nephritis; [4]): 80% | Urine specific gravity (canine acute nephritis; [4]): 1.123 ± 0.01 | Body temperature (canine acute nephritis; [5]): 38.7 ± 0.5 °C | Mortality rate (canine acute nephritis; [5]): 50% | Positive rate of urine protein (+++, %) (canine acute nephritis; [5]): 50% | Urine specific gravity (canine acute nephritis; [5]): 1.017 ± 0.25 | Body temperature (canine acute nephritis; [6]): 39.3 ± 0.4 °C | Mortality rate (canine acute nephritis; [6]): 60% | Positive rate of urine protein (+++, %) (canine acute nephritis; [6]): 70% | Urine specific gravity (canine acute nephritis; [6]): 1.094 ± 0.04 | Body temperature (canine acute nephritis; [7]): 38.8 ± 0.3 °C | Mortality rate (canine acute nephritis; [7]): 40% | Positive rate of urine protein (+++, %) (canine acute nephritis; [7]): 40% | Urine specific gravity (canine acute nephritis; [7]): 1.005 ± 0.09 | Positive rate of white blood cell (+++, %) (canine acute nephritis; [2]): 70% | Positive rate of white blood cell (+++, %) (canine acute nephritis; [3]): 30% | Positive rate of white blood cell (+++, %) (canine acute nephritis; [4]): 80% | Positive rate of white blood cell (+++, %) (canine acute nephritis; [5]): 60% | Positive rate of white blood cell (+++, %) (canine acute nephritis; [6]): 80% | Positive rate of white blood cell (+++, %) (canine acute nephritis; [7]): 40% | Body temperature (canine parvovirus; [2]): 37.8 ± 0.4 °C | Mortality rate (canine parvovirus; [2]): 50% | White blood cell count (canine parvovirus; [2]): 6.2 ± 0.5 ×10^9 | Body temperature (canine parvovirus; [3]): 37.4 ± 0.2 °C | Mortality rate (canine parvovirus; [3]): 30% | White blood cell count (canine parvovirus; [3]): 8.2 ± 0.7 ×10^9 | Body temperature (canine parvovirus; [4]): 39.2 ± 0.5 °C | Mortality rate (canine parvovirus; [4]): 80% | White blood cell count (canine parvovirus; [4]): 3.3 ± 0.3 ×10^9 | Body temperature (canine parvovirus; [5]): 38.2 ± 0.5 °C | Mortality rate (canine parvovirus; [5]): 50% | White blood cell count (canine parvovirus; [5]): 6.3 ± 0.4 ×10^9 | Body temperature (canine parvovirus; [6]): 38.4 ± 0.3 °C | Mortality rate (canine parvovirus; [6]): 60% | White blood cell count (canine parvovirus; [6]): 4.6 ± 0.8 ×10^9 | Body temperature (canine parvovirus; [7]): 37.6 ± 0.3 °C | Mortality rate (canine parvovirus; [7]): 40% | White blood cell count (canine parvovirus; [7]): 7.6 ±0.6 ×10^9 | Body temperature (canine renal failure; [2]): 38.5 ± 0.2 °C | Creatinine (canine renal failure; [2]): 100 ± 30 µmol/L | Inorganic phosphous (canine renal failure; [2]): 1.4 ± 0.08 mmol/L | Mortality rate (canine renal failure; [2]): 40% | Urea (canine renal failure; [2]): 14.2 ± 0.4 mmol/L | Body temperature (canine renal failure; [3]): 38.6 ± 0.4 °C | Creatinine (canine renal failure; [3]): 109 ± 20 µmol/L | Inorganic phosphous (canine renal failure; [3]): 0.9 ± 0.06 mmol/L | Mortality rate (canine renal failure; [3]): 20% | Urea (canine renal failure; [3]): 8.7 ± 0.3 mmol/L | Body temperature (canine renal failure; [4]): 37.8 ± 0.3 °C | Creatinine (canine renal failure; [4]): 130 ± 19 µmol/L | Inorganic phosphous (canine renal failure; [4]): 1.6 ± 0.02 mmol/L | Mortality rate (canine renal failure; [4]): 60% | Urea (canine renal failure; [4]): 20.8 ± 0.5 mmol/L | Body temperature (canine renal failure; [5]): 38.3 ± 0.5 °C | Creatinine (canine renal failure; [5]): 117 ± 25 µmol/L | Inorganic phosphous (canine renal failure; [5]): 1.1 ± 0.05 mmol/L | Mortality rate (canine renal failure; [5]): 40% | Urea (canine renal failure; [5]): 11.8 ± 0.6 mmol/L | Body temperature (canine renal failure; [6]): 38.2 ± 0.4 °C | Creatinine (canine renal failure; [6]): 120 ± 26 µmol/L | Inorganic phosphous (canine renal failure; [6]): 2.0 ± 0.03 mmol/L | Mortality rate (canine renal failure; [6]): 50% | Urea (canine renal failure; [6]): 17.5 ± 0.7 mmol/L | Body temperature (canine renal failure; [7]): 38.5 ± 0.3 °C | Creatinine (canine renal failure; [7]): 115 ± 12 µmol/L | Inorganic phosphous (canine renal failure; [7]): 1.5 ± 0.04 mmol/L | Mortality rate (canine renal failure; [7]): 30% | Urea (canine renal failure; [7]): 9.9 ± 0.8 mmol/L | Mean time of first estrus after medication [1, 8]: 25 ± 5.5 days | Oestrus rate [1, 8]: 65* % | Pregnancy rate in three estrous periods after delivery [1, 8]: 56* % | Mean time of first estrus after medication [1, 9]: 23 ± 6.2 days | Oestrus rate [1, 9]: 78* % | Pregnancy rate in three estrous periods after delivery [1, 9]: 75* % | Mean time of first estrus after medication [1, 10]: 24 ± 5.2 days | Oestrus rate [1, 10]: 68* % | Pregnancy rate in three estrous periods after delivery [1, 10]: 58* % | Mean time of first estrus after medication [1, 11]: 27 ± 5.8 days | Oestrus rate [1, 11]: 54% | Pregnancy rate in three estrous periods after delivery [1, 11]: 42% | Mean time of first estrus after medication [1, 12]: 25 ± 5.4 days | Oestrus rate [1, 12]: 64% | Pregnancy rate in three estrous periods after delivery [1, 12]: 52% | Mean time of first estrus after medication [1, 13]: 27 ± 6.4 days | Oestrus rate [1, 13]: 57% | Pregnancy rate in three estrous periods after delivery [1, 13]: 46% | Mean time of first estrus after medication [1, 14]: 26 ± 4.6 days | Oestrus rate [1, 14]: 60% | Pregnancy rate in three estrous periods after delivery [1, 14]: 52% | Mean time of first estrus after medication [1, 15]: 24 ± 7.3 days | Oestrus rate [1, 15]: 74* % | Pregnancy rate in three estrous periods after delivery [1, 15]: 70* % | Mean time of first estrus after medication [1, 16]: 26 ± 4.3 days | Oestrus rate [1, 16]: 63% | Pregnancy rate in three estrous periods after delivery [1, 16]: 52% | Mortality rate (feline parvovirus; [2]): 50% | White blood cell count (feline parvovirus; [2]): 9.1 ± 0.5 ×10^9 | Mortality rate (feline parvovirus; [3]): 40% | White blood cell count (feline parvovirus; [3]): 9.3 ± 0.9 ×10^9 | Mortality rate (feline parvovirus; [4]): 90% | White blood cell count (feline parvovirus; [4]): 4.7 ± 0.3 ×10^9 | Mortality rate (feline parvovirus; [5]): 80% | White blood cell count (feline parvovirus; [5]): 7.7 ± 0.4 ×10^9 | Mortality rate (feline parvovirus; [6]): 70% | White blood cell count (feline parvovirus; [6]): 7.8 ± 0.6 ×10^9 | Mortality rate (feline parvovirus; [7]): 60% | White blood cell count (feline parvovirus; [7]): 8.8 ± 0.7 ×10^9
